Results from ChEMBL document CHEMBL4007387, “Therapeutic evolution of benzimidazole derivatives in the last quinquennial period” (Eur J Med Chem, 2017).

Legend:
Hep 3B2 = experiment: Antiproliferative activity against human Hep3B cells after 48 hrs by MTT assay; type: functional, cell-based
HeLa = experiment: Antiproliferative activity against human HeLa cells after 48 hrs by MTT assay; type: functional, cell-based
MCF7 = experiment: Antiproliferative activity against human MCF7 cells after 48 hrs by MTT assay; type: functional, cell-based; conditions: MCF7, 48 h
PBMC = experiment: Antiproliferative activity against human PBMC after 48 hrs by MTT assay; type: cell-based
NIH3T3 = experiment: Antiproliferative activity against mouse NIH/3T3 cells after 72 hrs by real-time cell analysis; type: cell-based; conditions: NIH3T3, 72 h

IC50 (HeLa) [µM] | IC50 (MCF7) [µM] | SMILES | IC50 (Hep 3B2) [µM] | IC50 (PBMC) [µM] | IC50 (NIH3T3) [µM]
5.34 | 24.2 | Cc1nc2ccccc2n1CC(=O)NN | 40.5 | 23 | 
 |  | COc1ccc2[nH]c(SCC(=O)Nc3ccc(-c4csc(-c5ccccc5)n4)cc3)nc2c1 |  |  | 74.6
